Publication PMC10388363, “Novel 1,4-Dihydropyridines as Specific Binders and Activators of SIRT3 Impair Cell Viability and Clonogenicity and Downregulate Hypoxia-Induced Targets in Cancer Cells” (Journal of Medicinal Chemistry, 2023)

Key:
human SIRT1 = target: T1, human SIRT1 (Homo sapiens, UniProt Q96EB6); set-up: method as in PMID 36228194; conditions: 100 μM; cited from earlier work
T1 construct: using constructs in pET15b (Sirt1); His tag (N, cleaved yes); made in house; host or cells: Escherichia coli
T1 sequence (Q96EB6 1-747): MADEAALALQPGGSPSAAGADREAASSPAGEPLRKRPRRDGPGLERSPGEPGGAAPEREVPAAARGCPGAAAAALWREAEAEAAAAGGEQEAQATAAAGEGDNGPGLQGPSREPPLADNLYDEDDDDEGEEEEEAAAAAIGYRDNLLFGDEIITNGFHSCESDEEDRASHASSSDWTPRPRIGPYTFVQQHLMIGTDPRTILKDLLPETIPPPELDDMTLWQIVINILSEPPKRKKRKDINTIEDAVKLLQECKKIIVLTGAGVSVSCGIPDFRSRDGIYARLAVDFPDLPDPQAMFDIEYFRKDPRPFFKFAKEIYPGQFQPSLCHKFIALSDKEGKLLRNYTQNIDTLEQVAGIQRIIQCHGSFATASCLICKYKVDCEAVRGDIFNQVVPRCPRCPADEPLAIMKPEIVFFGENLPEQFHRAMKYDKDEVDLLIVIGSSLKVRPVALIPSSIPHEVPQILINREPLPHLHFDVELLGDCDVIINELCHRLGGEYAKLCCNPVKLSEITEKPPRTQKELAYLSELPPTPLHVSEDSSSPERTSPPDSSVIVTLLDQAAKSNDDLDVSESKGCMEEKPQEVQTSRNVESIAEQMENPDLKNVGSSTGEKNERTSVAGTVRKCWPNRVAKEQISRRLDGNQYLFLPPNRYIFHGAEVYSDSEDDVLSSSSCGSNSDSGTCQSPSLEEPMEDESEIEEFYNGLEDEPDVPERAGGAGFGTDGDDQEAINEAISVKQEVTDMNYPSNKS

human SIRT3 [1] = target: T2, human SIRT3 (Homo sapiens, UniProt Q9NTG7); set-up: method as in PMID 36228194; conditions: 100 μM; cited from earlier work
T2 construct: pET151D/Topo (Sirt3-114-380 and Sirt5-34-302); His tag (N, cleaved yes); made in house; host or cells: Escherichia coli
T2 sequence (Q9NTG7 114-380): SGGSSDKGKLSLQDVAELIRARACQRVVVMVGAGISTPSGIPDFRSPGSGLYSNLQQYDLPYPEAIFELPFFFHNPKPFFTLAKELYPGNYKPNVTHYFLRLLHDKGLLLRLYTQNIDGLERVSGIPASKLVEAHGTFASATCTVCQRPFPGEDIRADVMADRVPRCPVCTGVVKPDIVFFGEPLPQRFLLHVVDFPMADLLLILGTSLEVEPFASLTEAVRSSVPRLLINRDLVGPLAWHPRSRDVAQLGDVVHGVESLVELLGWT

human SIRT3 [2] = target: T2, human SIRT3; experiment: Surface plasmon resonance binding assay, immobilized SIRT3; conditions: SPR, Scatchard analysis, analytes 5-80 μM
Protocol: Next, surface plasmon resonance (SPR) experiments were conducted with selected SIRT3 activators 2e and 3a–d to ascertain their biophysical interaction with the human SIRT3 protein. Their parental compounds 2 and 3, together with honokiol, were used as positive controls. The experiments were carried out twice at different concentrations (5, 10, 20, 40, and 80 μM), by injecting the compounds at increasing doses (Figure 5). The resonance units (RU) increase with respect to baseline indicates the formation of the SIRT3/ligand complex, the plateau region represents the steady-state phase of the interaction (RUeq, RU at equilibrium) and the decrease in RU after 180 s represents dissociation of analytes from the immobilized SIRT3 protein after injection of the buffer.
SPR experiments were carried out using a SensiQ Pioneer system (SensiQ, Oklahoma City, OK, USA), essentially as in Genovese et al. 2020[84] and in Battista et al. 2021,[85] with some modifications, as follows.
The sensor chip (COOH5) was chemically activated by a 35 μL injection of a 1:1 mixture of […] (200 mM) and N-hydroxysuccinimide (50 mM) at a flow rate of 5 μL/min. Sirtuin3 (ligand) was immobilized on activated sensor chips via amine coupling. Immobilization was carried out in 20 mM sodium acetate at pH 4.0; unreacted groups were blocked by injecting 1 M ethanolamine hydrochloride (35 μL). Sirtuin3 immobilization level obtained was 1500–4000 RU.
The analytes, dissolved in 100% DMSO at 10 mM concentration, were diluted in buffer 20 mM Hepes, 150 mM NaCl, 0.005% surfactant P20 buffer (HBSP) to a concentration of 200 μM (2% final DMSO concentration), further diluted in HBSP + 2% DMSO (HBSP2%D) and injected on the sensor chip at a constant flow rate (nominal flow rate = 30 μL/min) at the following concentrations: 5, 10, 20, 40, and 80 μM.
The RU increase relative to baseline indicates complex formation (taking place at known analytes concentrations at each moment in the gradient); the plateau region represents the steady-state phase of the interaction (RUeq); and the decrease in RU after 180 s represents dissociation of analytes from the immobilized Sirtiun3 after injection of HBSP2%D. Regeneration procedures are based on two long (2000 and 500 s) injections of buffer, separated by a brief (5 s) injection of 10 mM NaOH.
Control experiments were performed in sensor chips treated as described above in the absence of an immobilized ligand. Kinetic evaluation of the sensorgrams was obtained using the SensiQ Qdat program and full fitting with 1, 2, and 3 sites; Scatchard analysis was used to determine apparent KD values.

In the case of `CCOC(=O)C1=CN(C(=O)c2ccccc2)C=C(C(=O)OCC)C1c1ccccc1` [Compound 2], the SIRT1 activation (human SIRT1) is listed as “below 200%”, the SIRT3 activation (human SIRT3 [1]) is listed as “over 300%” and the Kd (human SIRT3 [2]) is listed as 40 to 47 µM.
